# What was measured:
# Assay type in all cases: in vivo
# rice (Oryza sativa) = assay: Test B flooded paddy: rice; conditions: Flood, applied to paddy water at 2-leaf stage, visually evaluated after 13 to 15 days
# Summary of the method: (§1)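 At two leaves, seedlings received the test compound via the paddy water, pots having been flooded 3 cm over the soil surface and kept so. Greenhouse-held for 13 to 15 days, then judged by eye against controls on a scale running 0 (no effect) to 100 (complete control).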
# [1] = test system: barnyardgrass (Echinochloa crus-galli); assay: Test B flooded paddy: barnyardgrass; conditions: Flood, applied to paddy water at 2-leaf stage, visually evaluated after 13 to 15 days
# Summary of the method: as §1
# [2] = test system: sedge, umbrella (small-flower umbrella sedge Cyperus difformis); assay: Test B flooded paddy: sedge, umbrella; conditions: Flood, applied to paddy water at 2-leaf stage, visually evaluated after 13 to 15 days
# Summary of the method: as §1
# [3] = test system: wheat (Triticum aestivum); assay: Test A pre-/postemergence: wheat
# Summary of the method: (§2)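 Whole-plant greenhouse assay in loam/sand. Preemergence directed soil spray plus simultaneous postemergence spray (one- to two-leaf stage, 2–10 cm). Rated visually ~10 days later, 0 = no effect, 100 = complete control.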
# [4] = test system: pigweed (Amaranthus retroflexus); assay: Test C pre-/postemergence: pigweed
# Summary of the method: (§3)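 Visual injury scored 0–100 (100 = complete control) against untreated controls after 13–15 greenhouse days. Surfactant-containing solvent formulations applied either to soil after sowing (loam/sand) or over 1- to 4-leaf plants, 2–18 cm tall.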
# [5] = test system: pigweed (Amaranthus retroflexus); assay: Test A pre-/postemergence: pigweed
# Summary of the method: as §2
# soybean (Glycine max) = assay: Test C pre-/postemergence: soybean
# Summary of the method: as §3
# [6] = test system: barnyardgrass (Echinochloa crus-galli); assay: Test A pre-/postemergence: barnyardgrass
# Summary of the method: as §2
# [7] = test system: ryegrass, Italian (Italian ryegrass, Lolium multiflorum); assay: Test C pre-/postemergence: ryegrass, Italian
# Summary of the method: as §3
# [8] = test system: lambsquarters (Chenopodium album); assay: Test C pre-/postemergence: lambsquarters
# Summary of the method: as §3
# [9] = test system: winter wheat (Triticum aestivum); assay: Test C pre-/postemergence: winter wheat
# Summary of the method: as §3
# [10] = Postemergence, 125 g ai/ha, 0 to 100 scale, 0 is no effect, 100 is complete control
# [11] = Postemergence, 500 g ai/ha, 0 to 100 scale, 0 is no effect, 100 is complete control
# [12] = Preemergence, 125 g ai/ha, 0 to 100 scale where 0 is no effect and 100 is complete control
# [13] = Preemergence, 500 g ai/ha, 0 to 100 scale (0 no effect, 100 complete control)
# [14] = Postemergence, 31 g ai/ha, scale 0 to 100 (0 no effect, 100 complete control)
# [15] = Postemergence, 125 g ai/ha, scale 0 to 100, 0 no effect, 100 complete control
# [16] = Postemergence, 250 g ai/ha, scale 0 to 100 (0 no effect, 100 complete control)
# [17] = Preemergence, 31 g ai/ha, scale 0 (no effect) to 100 (complete control)
# [18] = Preemergence, 62 g ai/ha, scale of 0 to 100, 0 is no effect, 100 is complete control
# [19] = Preemergence, 125 g ai/ha, scale 0 to 100, 0 no effect, 100 complete control
# [20] = Preemergence, 250 g ai/ha, scale 0 to 100, 0 no effect, 100 complete control
# [21] = Postemergence, 62 g ai/ha, scale 0 to 100 (0 no effect, 100 complete control)
# [22] = Postemergence, 500 g ai/ha, visual rating on 0 to 100 scale (0 no effect, 100 complete control), approximately ten days
# [23] = Postemergence, 250 g ai/ha, scale 0 to 100
# [24] = Preemergence, 31 g ai/ha, scale of 0 to 100, 0 is no effect, 100 is complete control
compound,measurement,setting,value
CCc1nn(-c2ccc(C(F)(F)F)c(F)c2)nc1Oc1ccnc(C(F)(F)F)c1 [Compound 183],"Plant response rating, Rice (0 to 100 scale, 0 is no effect, 100 is complete control)",rice (Oryza sativa); 125 g ai/ha,45
same,"Plant response rating, Barnyardgrass (0 to 100 scale, 0 is no effect, 100 is complete control)",[1]; 125 g ai/ha,30
same,"Plant response rating, Sedge, Umbrella (0 to 100 scale, 0 is no effect, 100 is complete control)",[2]; 125 g ai/ha,95
same,"Plant response rating, Wheat",[3]; [10],30
same,Wheat plant response rating,[3]; [11],40
same,"Plant response rating, Wheat",[3]; [12],30
same,"Plant response rating, Wheat",[3]; [13],60
same,"Plant response rating, Pigweed",[4]; [14],100
same,"Plant response rating, Pigweed",[4]; [15],100
same,"Plant response rating, Pigweed",[4]; [16],100
same,"Plant response rating, Pigweed",[4]; [17],100
same,"Plant response rating, Pigweed",[4]; [18],100
same,"Plant response rating, Pigweed",[4]; [19],100
same,"Plant response rating, Pigweed",[4]; [20],100
same,"Plant response rating, Pigweed",[5]; [10],100
same,Pigweed plant response rating,[5]; [11],100
same,"Plant response rating, Pigweed",[5]; [12],100
same,"Plant response rating, Pigweed",[5]; [13],100
same,"Plant response rating, Soybean",soybean (Glycine max); [14],35
same,"Plant response rating, Soybean",soybean (Glycine max); [21],55
same,"Plant response rating, Soybean",soybean (Glycine max); [15],55
same,"Plant response rating, Soybean",soybean (Glycine max); [16],90
same,"Plant response rating, Soybean",soybean (Glycine max); [17],5
same,"Plant response rating, Soybean",soybean (Glycine max); [18],5
same,"Plant response rating, Soybean",soybean (Glycine max); [19],10
same,"Plant response rating, Soybean",soybean (Glycine max); [20],30
same,"Plant response rating, Barnyardgrass",[6]; [10],80
same,Barnyardgrass plant response rating,[6]; [11],90
same,"Plant response rating, Barnyardgrass",[6]; [12],90
same,"Plant response rating, Barnyardgrass",[6]; [13],100
same,"Plant response rating, Ryegrass, Italian",[7]; [14],10
same,"Plant response rating, Ryegrass, Italian",[7]; [21],15
same,"Plant response rating, Ryegrass, Italian",[7]; [15],20
same,"Plant response rating, Ryegrass, Italian",[7]; [16],40
same,"Plant response rating, Ryegrass, Italian",[7]; [17],65
same,"Plant response rating, Ryegrass, Italian",[7]; [18],80
same,"Plant response rating, Ryegrass, Italian",[7]; [19],90
same,"Plant response rating, Ryegrass, Italian",[7]; [20],95
same,"Plant response rating, Lambsquarters",[8]; [14],85
same,"Plant response rating, Lambsquarters",[8]; [21],95
same,"Plant response rating, Lambsquarters",[8]; [15],95
same,"Plant response rating, Lambsquarters",[8]; [16],98
same,"Plant response rating, Lambsquarters",[8]; [17],80
same,"Plant response rating, Lambsquarters",[8]; [18],100
same,"Plant response rating, Lambsquarters",[8]; [19],100
same,"Plant response rating, Lambsquarters",[8]; [20],100
same,"Plant response rating, Wheat",[9]; [14],10
same,"Plant response rating, Wheat",[9]; [21],20
same,"Plant response rating, Wheat",[9]; [15],20
same,"Plant response rating, Wheat",[9]; [16],30
same,"Plant response rating, Wheat",[9]; [17],5
same,"Plant response rating, Wheat",[9]; [18],10
same,"Plant response rating, Wheat",[9]; [19],35
same,"Plant response rating, Wheat",[9]; [20],40
CCc1nn(-c2ccc(F)cc2)nc1Cc1ccnc(C(F)(F)F)c1 [Compound 154],"Plant response rating, Rice (0 to 100 scale, 0 is no effect, 100 is complete control)",rice (Oryza sativa); 250 g ai/ha,45
same,"Plant response rating, Barnyardgrass (0 to 100 scale, 0 is no effect, 100 is complete control)",[1]; 250 g ai/ha,60
same,"Plant response rating, Sedge, Umbrella (0 to 100 scale, 0 is no effect, 100 is complete control)",[2]; 250 g ai/ha,80
same,"Plant response rating, Wheat",[3]; [10],20
same,Wheat plant response rating,[3]; [22],50
same,"Plant response rating, Wheat",[3]; [12],0
same,"Plant response rating, Wheat",[3]; [13],20
same,"Plant response rating, Pigweed",[4]; [14],95
same,"Plant response rating, Pigweed",[4]; [21],95
same,"Plant response rating, Pigweed",[4]; [15],98
same,"Plant response rating, Pigweed",[4]; [23],98
same,"Plant response rating, Pigweed",[4]; [24],100
same,"Plant response rating, Pigweed",[4]; [18],100
same,"Plant response rating, Pigweed",[4]; [19],100
same,"Plant response rating, Pigweed",[4]; [20],100
same,"Plant response rating, Pigweed",[5]; [10],100
same,Pigweed plant response rating,[5]; [22],100
same,"Plant response rating, Pigweed",[5]; [12],100
same,"Plant response rating, Pigweed",[5]; [13],100
same,"Plant response rating, Soybean",soybean (Glycine max); [14],45
same,"Plant response rating, Soybean",soybean (Glycine max); [21],60
same,"Plant response rating, Soybean",soybean (Glycine max); [15],65
same,"Plant response rating, Soybean",soybean (Glycine max); [23],75
same,"Plant response rating, Soybean",soybean (Glycine max); [24],0
same,"Plant response rating, Soybean",soybean (Glycine max); [18],0
same,"Plant response rating, Soybean",soybean (Glycine max); [19],15
same,"Plant response rating, Soybean",soybean (Glycine max); [20],15
same,"Plant response rating, Barnyardgrass",[6]; [10],90
same,Barnyardgrass plant response rating,[6]; [22],90
same,"Plant response rating, Barnyardgrass",[6]; [12],100
same,"Plant response rating, Barnyardgrass",[6]; [13],100
same,"Plant response rating, Ryegrass, Italian",[7]; [14],5
same,"Plant response rating, Ryegrass, Italian",[7]; [21],10
same,"Plant response rating, Ryegrass, Italian",[7]; [15],30
same,"Plant response rating, Ryegrass, Italian",[7]; [23],35
same,"Plant response rating, Ryegrass, Italian",[7]; [24],10
same,"Plant response rating, Ryegrass, Italian",[7]; [18],30
same,"Plant response rating, Ryegrass, Italian",[7]; [19],90
same,"Plant response rating, Ryegrass, Italian",[7]; [20],90
same,"Plant response rating, Lambsquarters",[8]; [14],75
same,"Plant response rating, Lambsquarters",[8]; [21],98
same,"Plant response rating, Lambsquarters",[8]; [15],98
same,"Plant response rating, Lambsquarters",[8]; [23],98
same,"Plant response rating, Lambsquarters",[8]; [24],100
same,"Plant response rating, Lambsquarters",[8]; [18],100
same,"Plant response rating, Lambsquarters",[8]; [19],100
same,"Plant response rating, Lambsquarters",[8]; [20],100
same,"Plant response rating, Wheat",[9]; [14],10
same,"Plant response rating, Wheat",[9]; [21],15
same,"Plant response rating, Wheat",[9]; [15],20
same,"Plant response rating, Wheat",[9]; [23],30
same,"Plant response rating, Wheat",[9]; [18],5
same,"Plant response rating, Wheat",[9]; [19],5
same,"Plant response rating, Wheat",[9]; [20],55

# Reference: patent US9302999B2, “Substituted triazoles as herbicides” (E. I. DU PONT DE NEMOURS AND COMPANY, priority 2012, dated 2016)
